In ChEMBL document CHEMBL1201862, “PubChem BioAssay data set” (2004):
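Exposure lasted 48 hours, with cells grown in 96-well plates and compounds tested at five concentrations. At the GI50, growth is halved.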 Calls of active or inactive are those of the source. Cut-off read from the data, not from the text of the source: active = GI50 up to about 1.1 µM and inactive = higher.

Legend:
Assay in all cases: DTP human tumour cell line panel, 48 h
[1] = tested on: HT-29
[2] = tested on: COLO 205
[3] = tested on: CAKI-1
[4] = tested on: SNB-19
[5] = tested on: A498
[6] = tested on: OVCAR-8
[7] = tested on: OVCAR-5
[8] = tested on: MOLT-4
[9] = tested on: MDA-N
[10] = tested on: OVCAR-4
[11] = tested on: EKVX
[12] = tested on: MCF7
[13] = tested on: HCT-116
[14] = tested on: CCRF-CEM
[15] = tested on: SF-539
[16] = tested on: UACC-62
[17] = tested on: M14
[18] = tested on: SK-MEL-2
[19] = tested on: SK-OV-3
[20] = tested on: HCC 2998

Structure (SMILES)	GI50 [1]	GI50 [2]	GI50 [3]	GI50 [4]	GI50 [5]	GI50 [6]	GI50 [7]	GI50 [8]	GI50 [9]	GI50 [10]	GI50 [11]	GI50 [12]	GI50 [13]	GI50 [14]	GI50 [15]	GI50 [16]	GI50 [17]	GI50 [18]	GI50 [19]	GI50 [20]
Cc1cc(C)c2c(=O)n(CC(O)CN3CCN(CCOCCO)CC3)sc2n1 (configuration not stated)	19.1 µM (inactive)	17.7 µM (inactive)	> 100 µM (inactive)	36.5 µM (inactive)	21.9 µM (inactive)	19.9 µM (inactive)	18.9 µM (inactive)	24.5 µM (inactive)	15.6 µM (inactive)	17.9 µM (inactive)	18.7 µM (inactive)	18.3 µM (inactive)	17.1 µM (inactive)	11.4 µM (inactive)	20 µM (inactive)	18.7 µM (inactive)	17.8 µM (inactive)	19.7 µM (inactive)	26.4 µM (inactive)	–
CCCc1c2c3ccccc3nc-2nc2ccccn12	43.6 µM (inactive)	97.7 µM (inactive)	> 100 µM (inactive)	> 100 µM (inactive)	> 100 µM (inactive)	71.8 µM (inactive)	25.2 µM (inactive)	67.5 µM (inactive)	74.5 µM (inactive)	50.5 µM (inactive)	> 100 µM (inactive)	–	–	> 100 µM (inactive)	> 100 µM (inactive)	72.3 µM (inactive)	26.7 µM (inactive)	> 100 µM (inactive)	> 100 µM (inactive)	–
O=C(C#Cc1ccccc1)C1=Cc2ccccc2OC1	2.11 µM (inactive)	1.92 µM (inactive)	1.88 µM (inactive)	15 µM (inactive)	19.2 µM (inactive)	2.39 µM (inactive)	2.99 µM (inactive)	3.33 µM (inactive)	–	3.34 µM (inactive)	2.09 µM (inactive)	1.42 µM (inactive)	1.92 µM (inactive)	0.198 µM (active)	1.93 µM (inactive)	1.94 µM (inactive)	3.01 µM (inactive)	3.94 µM (inactive)	15 µM (inactive)	7.38 µM (inactive)
COC(=O)NC1(NC(=O)OC)NC(=O)c2cc(OC)c(OC)cc2N1	–	20.2 µM (inactive)	19.2 µM (inactive)	55.5 µM (inactive)	–	65.6 µM (inactive)	> 100 µM (inactive)	–	3.83 µM (inactive)	–	89.3 µM (inactive)	16.1 µM (inactive)	29.8 µM (inactive)	5.21 µM (inactive)	25.6 µM (inactive)	30.1 µM (inactive)	20.8 µM (inactive)	19 µM (inactive)	–	–
Cc1cnoc1NS(=O)(=O)c1ccc(Nc2nnc(/C=C/c3c(O)ccc4ccccc34)c(=O)n2N)cc1	58.6 µM (inactive)	–	27.5 µM (inactive)	65.2 µM (inactive)	–	16.4 µM (inactive)	40.1 µM (inactive)	0.658 µM (active)	25.4 µM (inactive)	27.9 µM (inactive)	35.9 µM (inactive)	18.2 µM (inactive)	22 µM (inactive)	10.9 µM (inactive)	–	24.5 µM (inactive)	25.9 µM (inactive)	–	56.1 µM (inactive)	–
O=C1CCC2=C(CCC2)N1CCc1ccc2c(c1)OCO2	92 µM (inactive)	60.3 µM (inactive)	81.8 µM (inactive)	81.7 µM (inactive)	–	> 10 µM (inactive)	42.6 µM (inactive)	15.4 µM (inactive)	> 100 µM (inactive)	> 100 µM (inactive)	47 µM (inactive)	60 µM (inactive)	48.2 µM (inactive)	29.2 µM (inactive)	> 100 µM (inactive)	65 µM (inactive)	92.9 µM (inactive)	29.9 µM (inactive)	> 100 µM (inactive)	> 100 µM (inactive)
COCOc1cc(OC)c(Br)cc1C/C(=N/O)C(=O)OC	> 100 µM (inactive)	> 100 µM (inactive)	48.8 µM (inactive)	> 100 µM (inactive)	–	> 100 µM (inactive)	> 100 µM (inactive)	27.5 µM (inactive)	28 µM (inactive)	52.5 µM (inactive)	49 µM (inactive)	95.5 µM (inactive)	> 100 µM (inactive)	37.8 µM (inactive)	> 100 µM (inactive)	40.6 µM (inactive)	> 100 µM (inactive)	88.5 µM (inactive)	> 100 µM (inactive)	> 100 µM (inactive)
O=c1ssc(Cl)c1Nc1c(Cl)ssc1=O	22.4 µM (inactive)	11.3 µM (inactive)	15.2 µM (inactive)	25.7 µM (inactive)	17.8 µM (inactive)	21.5 µM (inactive)	19.4 µM (inactive)	2.25 µM (inactive)	–	18.2 µM (inactive)	20.6 µM (inactive)	24.3 µM (inactive)	17.5 µM (inactive)	3.78 µM (inactive)	25.1 µM (inactive)	> 40.7 µM (inactive)	19.2 µM (inactive)	19.4 µM (inactive)	25.9 µM (inactive)	22.3 µM (inactive)
O=c1[nH]c2nc3ccccc3c(=O)n2/c1=C/c1ccccc1	17.5 µM (inactive)	33.1 µM (inactive)	47.4 µM (inactive)	19.6 µM (inactive)	–	28 µM (inactive)	> 100 µM (inactive)	95.5 µM (inactive)	25.6 µM (inactive)	> 100 µM (inactive)	35.3 µM (inactive)	44.2 µM (inactive)	31.1 µM (inactive)	40.3 µM (inactive)	22.5 µM (inactive)	28.6 µM (inactive)	47.9 µM (inactive)	> 100 µM (inactive)	> 100 µM (inactive)	31 µM (inactive)
O=[N+]([O-])/C(C(Cl)=C(Cl)Cl)=C1\NCCS1	47.8 µM (inactive)	40.1 µM (inactive)	45.7 µM (inactive)	> 100 µM (inactive)	26.1 µM (inactive)	47.2 µM (inactive)	> 100 µM (inactive)	21.9 µM (inactive)	–	29.1 µM (inactive)	> 100 µM (inactive)	36 µM (inactive)	43.3 µM (inactive)	19.1 µM (inactive)	42.5 µM (inactive)	39.7 µM (inactive)	46.9 µM (inactive)	–	> 100 µM (inactive)	34.4 µM (inactive)
O=C(O)C1(Cc2ccccc2)Cc2cc3c(cc2C1)CCC3	> 100 µM (inactive)	> 100 µM (inactive)	–	> 100 µM (inactive)	–	> 100 µM (inactive)	> 100 µM (inactive)	> 100 µM (inactive)	> 100 µM (inactive)	> 100 µM (inactive)	54.2 µM (inactive)	> 100 µM (inactive)	42.9 µM (inactive)	45.1 µM (inactive)	> 100 µM (inactive)	> 100 µM (inactive)	44.1 µM (inactive)	82 µM (inactive)	> 100 µM (inactive)	58.2 µM (inactive)
[O-][N+]1=C2CCC/C(=N/O)C2(O)C2CCCCC21N1CCOCC1 (configuration not stated)	> 100 µM (inactive)	> 100 µM (inactive)	> 100 µM (inactive)	> 100 µM (inactive)	–	> 100 µM (inactive)	> 100 µM (inactive)	> 100 µM (inactive)	> 100 µM (inactive)	> 100 µM (inactive)	> 100 µM (inactive)	> 100 µM (inactive)	> 100 µM (inactive)	> 100 µM (inactive)	> 100 µM (inactive)	> 100 µM (inactive)	> 100 µM (inactive)	> 100 µM (inactive)	> 100 µM (inactive)	> 100 µM (inactive)
CCOC(=O)/C(C#N)=C/c1coc2cc(C)cc(C)c2c1=O	> 100 µM (inactive)	> 100 µM (inactive)	> 100 µM (inactive)	> 100 µM (inactive)	> 100 µM (inactive)	> 100 µM (inactive)	> 100 µM (inactive)	> 100 µM (inactive)	> 100 µM (inactive)	–	> 100 µM (inactive)	–	> 100 µM (inactive)	> 100 µM (inactive)	> 100 µM (inactive)	> 100 µM (inactive)	> 100 µM (inactive)	–	> 100 µM (inactive)	> 100 µM (inactive)
Cc1ccc(N/C(=C(/C(Cl)=C(Cl)Cl)[N+](=O)[O-])n2nnc3ccccc32)cc1	22 µM (inactive)	15.1 µM (inactive)	17.7 µM (inactive)	18.3 µM (inactive)	–	18.8 µM (inactive)	20.1 µM (inactive)	9.64 µM (inactive)	18.9 µM (inactive)	18.7 µM (inactive)	19.1 µM (inactive)	29.1 µM (inactive)	30 µM (inactive)	7.06 µM (inactive)	15.2 µM (inactive)	–	16.6 µM (inactive)	17.7 µM (inactive)	17.1 µM (inactive)	18.7 µM (inactive)
O=c1c2ccccc2nc(Nc2cccc(Cl)c2)n1/N=C/C=C/c1ccccc1	61.9 µM (inactive)	> 100 µM (inactive)	> 100 µM (inactive)	47.2 µM (inactive)	–	39.2 µM (inactive)	> 100 µM (inactive)	> 100 µM (inactive)	> 100 µM (inactive)	45.5 µM (inactive)	80.7 µM (inactive)	26.3 µM (inactive)	60.4 µM (inactive)	> 100 µM (inactive)	35.7 µM (inactive)	41.3 µM (inactive)	> 100 µM (inactive)	> 100 µM (inactive)	70 µM (inactive)	94 µM (inactive)
O=C(O)Cc1c(O)ccc2ccccc12	> 100 µM (inactive)	> 100 µM (inactive)	> 100 µM (inactive)	> 100 µM (inactive)	> 100 µM (inactive)	> 100 µM (inactive)	> 100 µM (inactive)	> 100 µM (inactive)	> 100 µM (inactive)	> 100 µM (inactive)	> 100 µM (inactive)	> 100 µM (inactive)	> 100 µM (inactive)	–	> 100 µM (inactive)	> 100 µM (inactive)	> 100 µM (inactive)	> 100 µM (inactive)	> 100 µM (inactive)	–
